Read-outs that look alike come from different tables or passages of the source.
Tests used:
[1] = Kinetic stability of ligands in simulated physiological conditions (UV-Vis); assay type: physicochemical; conditions: for Stability: percentage of the residual ligand after 4 h: PBS, pH 7.4, 37 °C in darkness; for Stability ranking (residual ligand after 4 h): rank among the 7 ligands, 1 = most stable
Method: The chemical stability of ligands and metal complexes at the M:L 1:L molar ratio at 37 °C in darkness was evaluated by UV−Vis spectroscopy as a change in absorbance in the 250−600 nm range over an overall period of 8 h. Solutions (5.0 × 10^–5 mol L^–1) of the ligands were prepared in 0.1 mol L^–1 phosphate-buffered solution (PBS) at pH 7.4. Spectra were recorded every 30 min. All profiles were linearized as the hyperbolic function defined by Equation (2), which represents an empirical model that describes drug decomposition or release well [42]:(2) t/f%=at+b where f% is the percentage of the residual compound at time t (min) referred to the starting concentration at time zero determined by reading the absorbance at λmax.

[2] = Spectrophotometric pH-metric titrations of Ga^3+:ligand systems (stability constants, pGa, speciation); assay type: physicochemical; conditions: for log β 112 overall stability constant (Ga^3+) / log β 124 overall stability constant (Ga^3+) / logK11 apparent formation constant (Ga^3+, M:L 1:1) / logK12 apparent formation constant (Ga^3+, M:L 1:2): 298 K; for log β 112 overall stability constant (Ga^3+) / log β 124 overall stability constant (Ga^3+): HypSpec; for logK11 apparent formation constant (Ga^3+, M:L 1:1) / logK12 apparent formation constant (Ga^3+, M:L 1:2): estimated from logβMLH; for Prevailing Species (pH 5.5) / Prevailing Species (pH 7.4): Ga^3+ complex species; for Prevailing Species (pH 7.4): ** possible formation of gallium hydroxide species; for pGa (−log[Ga^3+]free): [Ga^3+]total = 1 μM, [L]total = 10 μM, pH 7.4, 25 °C
Method: (§1) UV–visible spectra were recorded with a JASCO V-570 UV/Vis/NIR spectrophotometer at 298 K in the 250–600 nm spectral range employing quartz cells (1 cm optical path). To perform spectrophotometric titrations, ligands (denoted generally as L in the following) were dissolved in methanol to give a mother solution (2.50 mM), that was then diluted in water in order to obtain a final concentration of 50 μM. The metal/ligand (M:L) solutions were obtained by adding appropriate quantities of Ga(NO3)3 as methanol solutions (5–10 mM) in order to obtain the metal-to-ligand 1:1 molar ratio (L = 50 μM and V = 25 mL). For both L and M:L systems, pH (initial value of about 5) was varied by adding small amounts (<1 μL) of concentrated NaOH (4 M) up to ca. pH 11, thus to consider volume variations negligible. To evaluate the complexation ratio, constant additions of the M solution (10 µL each time, M = 10^–2 M) were dropped into the ligand solution (V = 25 mL, L = 50 μM) using a micropipette in order to reach different M:L molar ratios. A constant ionic strength (NaNO3, 0.1 M) was maintained in all experiments. Spectrophotometric investigations of iron(III) systems were performed in the same conditions; the Fe^3+ solution was freshly prepared in methanol starting from Fe(NO3)3·9H2O. The overall protonation constants (logβqr) and the overall stability constants of metal complexes (logβpqr) were evaluated from spectrophotometric data. The stability constants (βpqr), defined by the following equations:(3) pM^m++qL^l^−+rH^+⇌MpLqHr(mp−lq+r) (4) βpqr=[MpLqHr(mp−lq+r)]/[M^m+]^p·[L^l−]^q·[H^+]^r where L is the ligand in the completely dissociated form and H is proton, were refined using least-squares calculation in HypSpec. The results of least-squares calculation include the standard deviations and correlation coefficients of the refined parameters. The quantities are obtained by performing error propagation calculation from the experimental errors onto the parameters. The stability constant refinement furnishes least-squares estimates of the standard deviation, σ, of the stability constant β. The error on logβ is calculated as follows: σ(logβ) = [log(β + σ) − log(β − σ)]/2.
Hydroxide species, such as [Ga(OH)2]^+, were taken into account for calculations. The hydrolysis constants for Ga^3+ are as follows: logβ1,1,0 = −3.93; logβ2,1,0 = −7.73; logβ3,1,0 = −12.38; logβ4,1,0 = −15.96; logβ32,13,0 = −66.3; logβ3,1,0(s) = −3.54 [43]; pGa is defined as (−log[Ga^3+]free) and is calculated at specific conditions (Ga^3+total = 1 μM, Ltotal = 10 μM, pH 7.4, 25 °C). For the calculation of the iron(III) overall stability constants, the presence of [Fe(OH)]^2+, [Fe(OH)2]^+ and [Fe(OH)3] species was taken into account.

[3] = tested on: HCT116 colon carcinoma cells; test: MTT cell viability assay; assay type: cell-based, Human; conditions: mean
Method: Human colorectal carcinoma HCT116 cells (#91091005, ECACC) were grown in an IMDM medium (Biowest) supplemented with 2 mM glutamine, 100 IU/mL penicillin, 100 μg/mL streptomycin and 10% FBS (Gibco). The cell lines were grown at 37 °C in a humidified incubator containing 5% CO2. The cells were verified to be mycoplasma-free and passaged < 3 months. The inhibition of cell proliferation was measured by colorimetric 3-(4,5-dimethylthiazol-2-yl)-2,5-diphenyltetrazolium bromide (MTT) assay. GI50 concentrations were determined using the CompuSyn software version 1.0 (ComboSyn, Inc., Paramus, NJ USA) (free download via www.combosyn.com, accessed on 30 May 2022), and statistical analyses were performed using the GraphPad PRISM software (version 6.01 for Windows, GraphPad Software, San Diego, California USA GraphPad Prism) using unpaired t-test. Data were considered to be statistically significant if p < 0.05 (*), p < 0.01 (**), p < 0.001(***) and p < 0.0001 (****).

[4] = Spectrophotometric pH titrations of ligands (protonation constants, pKa); assay type: physicochemical; conditions: 298 K; for logβ011 overall protonation constant / logβ012 overall protonation constant / logβ013 overall protonation constant: HypSpec, spectrophotometric data; for pKa: aqueous solution (methanol stock diluted in water)
Method: as §1

[5] = calculated from logβ values, * = keto–enol moiety dissociation

Row | Stability: percentage of the residual ligand after 4 h [1] | Stability ranking (residual ligand after 4 h) [1] | log β 112 overall stability constant (Ga^3+) [2] | log β 124 overall stability constant (Ga^3+) [2] | logK11 apparent formation constant (Ga^3+, M:L 1:1) [2] | logK12 apparent formation constant (Ga^3+, M:L 1:2) [2] | Prevailing Species (pH 5.5) [2] | Prevailing Species (pH 7.4) [2] | pGa (−log[Ga^3+]free) [2] | GI50 ([3]; HCT116, 48 h of treatment) | logβ011 overall protonation constant [4] | logβ012 overall protonation constant [4] | logβ013 overall protonation constant [4] | pKa1 [4, 5] | pKa2 [4, 5] | pKa3 [4, 5] | GI50 ([3]; Homo sapiens, HCT-116, HCT116, 48 h of treatment) | pKa ([4]; calculated from logβ values, * = keto–enol moiety dissociation, read-out: pKa1) | pKa ([4]; calculated from logβ values, * = keto–enol moiety dissociation, read-out: pKa2) | pKa ([4]; calculated from logβ values, * = keto–enol moiety dissociation, read-out: pKa3) | Compound
1 | 52% | 5 | 28.54 (3) | 57.00 (1) | 8.09 | 16.1 | [Ga(H2L)2]^+ | [Ga(H2L)2]^+ | 23.2 | 8.76 µM | 10.44 (3) | 20.45 (2) | 29.58 (4) | 9.13 (6) | 10.01 (5) | 10.44 (3) | – | – | – | – | 2-((4Z,6E)-5-hydroxy-7-(4-hydroxyphenyl)-4-((E)-3-(4-hydroxy-3-ethoxyphenyl) acryloyl) hepta-4,6-dien-1-yl)isoindoline-1,3-dione [Compound 5]
2 | 42% | 7 | 28.48 (5) | 55.33 (5) | 8.04 | 14.45 | [Ga(H2L)2]^+ | [Ga(H2L)2]^+ | 21.5 | – | 10.78 (4) | 20.44 (6) | 29.44 (6) | – | – | – | 5.36 µM | 9 | 9.66 | 10.8 | COc1cc(/C=C/C(=O)C(CCCN2C(=O)c3ccccc3C2=O)C(=O)/C=C/c2ccc(O)c(OC)c2)ccc1O [Compound 4]
